Read-outs that look alike come from different tables or passages of the source.
Legend:
[1] = tested on: nitric oxide (NO) synthesis; test: In vivo kinetics of nitric oxide (NO) metabolism after citrulline ingestion (stable isotope tracer); set-up: species or system human; conditions: 3 grams; for NO synthesis rate after citrulline ingestion: after 3 hours; for De novo arginine synthesis after citrulline ingestion: over 3 hours
Method: FIGS. 6A-B depicts graphs showing plasma arginine concentration (FIG. 6A) and nitric oxide (NO) synthesis (FIG. 6B) in human subjects over 3 hours following citrulline ingestion (3 grams) wherein the subjects were either elderly (n=8, 77±9 years of age, 93±4 kg) or young individuals (n=8, 27±9 years of age, 70±5 kg).
EXAMPLE 5. A kinetic study with a stable isotope tracer method was performed to determine in vivo kinetics of nitric oxide (NO) metabolism in relation to citrulline ingestion in older adult humans (n=8, 77±9 years, 93±4 kg) and in young adult humans (n=8, 27±9 years, 70±5 kg). In the fasted state, NO synthesis (expressed per kg fat free mass) was ˜50% lower in older vs. young adults and was related to a decreased rate of appearance of the NO precursor arginine. Citrulline ingestion (3 grams) stimulated de novo arginine synthesis in both older (6.88±0.83 to 35.40±4.90 μmol·kg body wt^−1·h^−1) and, to a greater extent, in young adults (12.02±1.01 to 66.26±4.79 μmol·kg body wt^−1 h^−1) over 3 hours (FIG. 6A). NO synthesis rate increased correspondingly in older (0.17±0.01 to 2.12±0.36 μmol·kg body wt^−1·h^−1) and, to a greater extent, in young adults (0.36±0.04 to 3.57±0.47 μmol·kg body wt^−1·h^−1) after 3 hours (FIG. 6B). […] Because arginine can play a role in stimulating muscle protein synthesis as well as increasing blood flow via NO synthesis, the data strongly support citrulline ingestion for acute as well as long-term promotion of muscle function.

[2] = format: in vivo, human
Method: FIG. 2 depicts a graph showing leucine, lysine, and phenylalanine oxidation in human subjects at rest and during prolonged aerobic exercise (approximately 30% VO2 max for 105 minutes). Error bars represent standard error of mean (SE) assessed via ANOVA.
EXAMPLE 2. […] 1982, 52(2):458-66 and Wolfe et al., J APPL PHYSIOL RESPIR ENVIRON EXERC PHYSIOL. 1984, 56(1):221-9, both the disclosures of which are herein incorporated by reference in their entirety. Total leucine oxidation increased from 0.38±0.05 to 1.41±0.14 μmol·kg^−1·min^−1 during exercise due to increases in the oxidation of plasma leucine (150%) and intracellular leucine (600%) (FIG. 2). […] These findings provided a rational for providing extra leucine, as well as other branched chain amino acids, before exercise.

NC(=O)NCCC[C@H](N)C(=O)O [Citrulline, citrulline]
NO synthesis rate after citrulline ingestion ([1]; older adults, basal 0.17±0.01): 2.12±0.36 μmol·kg body wt^−1·h^−1
De novo arginine synthesis after citrulline ingestion ([1]; older adults, basal 6.88±0.83): 35.40±4.90 μmol·kg body wt^−1·h^−1
NO synthesis rate after citrulline ingestion ([1]; young adults, basal 0.36±0.04): 3.57±0.47 μmol·kg body wt^−1·h^−1
De novo arginine synthesis after citrulline ingestion ([1]; young adults, basal 12.02±1.01): 66.26±4.79 μmol·kg body wt^−1 h^−1

CC(C)C[C@H](N)C(=O)O [leucine]
Total leucine oxidation ([2]; human, in vivo): 0.38 ± 0.05 µmol/kg/min
Increase in the oxidation of intracellular leucine ([2]; human, in vivo, 105 min): 600%
Increase in the oxidation of plasma leucine ([2]; human, in vivo, 105 min): 150%
Total leucine oxidation ([2]; human, in vivo, 105 min): 1.41 ± 0.14 µmol/kg/min
Plasma leucine flux ([2]; not told): decreased slightly, but not significantly

NCCCC[C@H](N)C(=O)O [lysine]
Oxidation, change from rest to exercise ([2]; in vivo): did not change significantly

N[C@@H](Cc1ccccc1)C(=O)O [phenylalanine]
Oxidation, change from rest to exercise ([2]; in vivo): did not change significantly
